# Test results published in EPA's ToxValDB 9.5 (doi:10.2903/j.efsa.2006.57r).
# Legend:
# [1] = tested on: Aphidius rhopalosiphi; assay: LR50; higher = less toxic; settings: not reported; mortality
# [2] = tested on: Typhlodromus pyri; assay: LR50; higher = less toxic; settings: not reported; mortality
# [3] = tested on: Daphnia magna; settings: chronic/long-term; duration: 21 days; mortality
# [4] = tested on: Canidae; settings: chronic; duration: 1 years; oral; Dog Other; body weight
# [5] = tested on: Colinus virginianus; settings: reproduction developmental; F
# [6] = tested on: Rattus norvegicus; settings: oral
# [7] = tested on: Apis mellifera; settings: acute, mortality
# [8] = tested on: Tagia sp.; settings: acute; mortality
# [9] = tested on: Pimephales promelas; settings: chronic/long-term; duration: 35 days; other
# [10] = tested on: Anas platyrhynchos; settings: acute; oral; unspecified; mortality
# [11] = tested on: Oryctolagus sp.; settings: reproduction developmental
# [12] = tested on: Cucumis sativus; settings: not reported; other
# [13] = tested on: Ictalurus punctatus; settings: acute; duration: 96 hours; mortality
compound,measurement,setting,value
CCOC(=O)C1CC(=O)C(=C(O)C2CC2)C(=O)C1 (stereo not given) [Trinexapac-ethyl],LR50,[1],114 g/ha
same,LR50,[2],197 g/ha
same,NOEC,[3],2.4 mg/L
same,NOAEL,[4],32 mg/kg-day
same,NOEC,[5],≥ 53.3 mg/kg-day
same,LD50,"[6]; acute, mortality",4210 mg/kg
same,NOAEL,"[6]; subchronic, duration: 90 days, body weight",≤ 34 mg/kg-day
same,LD50,[7]; dermal,69.6 µg/piece
same,LD50,"[7]; oral, unspecified",> 108 µg/piece
same,LC50,[8],> 250 mg/kg
same,NOEC,[9],0.41 mg/L
same,LD50,[10],> 2000 mg/kg
same,NOAEL,[11],60 mg/kg-day
same,NOEC,[12],> 24 g/ha
same,LC50,[13],35 µg/mL
